Experimental data taken from paper PMC11555231 (Nature Communications, 2024).
Bridge positions count the residues as written; N and C are the ends. Square brackets hold non-standard residues; d marks the D form. Peptide text beside a SMILES is read from it.

Tests used:
HaLo-GFP-mito HeLa cells = assay: Chloroalkane penetration assay (CAPA); type: in vitro ADME; conditions: CAPA, chloroalkane-tagged peptide, 4 h in Opti-MEM, 37 °C, chase HaLo-Tag TMR ligand 5 µM 15 min, flow cytometry; mean ± SEM of three independent experiments
Protocol: Following the addition of chloroacetyl-NHS to the N-terminal amino group, Cys(mmt) was selectively deprotected using 1% TFA, 5% triisopropylsilane in DCM (30 min, RT). Peptides were then cyclised on resin using 2% diisopropylethylamine in DMF overnight. Following cyclisation, Lys(ivDde) was deprotected using 2% hydrazine in DMF. The resin was then washed (3 x DCM, 3 x DMF) before on-resin coupling of chloroalkane carboxylic acid was performed on the lysine side chain using Hexafluorophosphate Azabenzotriazole Tetramethyl Uronium / diisopropylethylamine in DMF for 2 h. Global deprotection and purification were then carried out as described above. Chloroalkane carboxylate was synthesised as previously described.
CAPA assays were performed following the protocol published in ref. [51]. In brief, 40,000 HaLo- GFP-mito HeLa cells were seeded in a 96-well plate. Twenty-four hours later, cells were treated with different concentrations of chloroalkane-tagged peptides (100 µM to 200 nM for PADI4_3 and PADI4_3i and 50 µM to 100 nM for PADI4_11 and PADI4_11i) for 4 h in Opti-MEM. Media containing peptides was then removed, and cells were incubated with Opti-MEM (Gibco) for 15 min. After that time, the wash was removed, and cells were chased with HaLo-Tag TMR ligand (5 µM, Promega) in Opti-MEM for 15 min. The ligand was then removed, and cells were incubated with Opti-MEM for 30 min. Cells were then trypsinised, resuspended in phosphate-buffered saline (PBS) with 0.5% FBS and analysed using a benchtop flow cytometer (MACSQuant® VYB Flow cytometer Milteny Biotec). For each well, 10000 GFP positive single cells were analysed (gating workflow shown in Supplementary Fig. 18), and TMR mean fluorescence was normalised against a positive control (cells treated with HaLo-Tag TMR ligand but no peptide) and a negative control (non-treated cells). Analysis was performed using FlowJo (LCC) software and Prism GraphPad (Dotmatics). Data were presented as the average ± standard error of three independent replicates.

human neutrophils = assay: Time-lapse imaging and NET quantification (NETosis); type: cell-based; conditions: 50 µM peptide, 5 µM Ca-Ionophore, 12 h
Protocol: Peripheral venous blood was isolated from consenting healthy adult volunteers in heparin tubes as previously described. Briefly, blood samples were on Histopaque 1119 (Sigma-Aldrich) and then centrifuged for 20 min at 800 × g. The plasma was collected and centrifuged for a second time for 20 min at 800 × g. The neutrophil layer was collected and washed in Hyclone Hank’s Balanced Salt Solution (HBSS) -Ca, -Mg, -Phenol red (GE Healthcare) supplemented with 10 mM HEPES (Invitrogen) 0.1% FBS and further purified with a discontinuous Percoll (GE Healthcare) gradient consisting of layers with densities of 85, 80, 75, 70 and 65% and centrifuged for 20 min at 800 × g. Neutrophil-enriched layers were then collected and washed, and neutrophil purity was assessed using flow cytometry.
About 5 × 10^4 human neutrophils were seeded in a black 96-well plate (PerkinElmer) in HyClone HBSS +Ca, +Mg, - Phenol red (GE Healthcare) containing 10 mM HEPES (Invitrogen). Cells were pre-incubated with the corresponding peptide for 60 min prior to the start of the experiment. DNA of live cells was stained with 4 µg/mL Hoechst (membrane permeable; Thermo Scientific) and DNA from dead cells with 0.2 µM Sytox-green (membrane impermeable; Invitrogen). Cells were stimulated with 100 nM PMA, 5 µM Ca-Ionophore or 0.1 mg/mL cholesterol crystals at the start of the microscope acquisition. Plates stimulated with cholesterol crystals were centrifuged at 300×g for 5 min at RT immediately prior to microscope acquisition. The cells were imaged on an inverted Nikon wide-field microscope system at 37 °C and CO2 (5%). Four fields of view were acquired per well every 15 mins for 10–15 h using a 40x objective. NETs were differentiated from necrotic cells by the size of the sytox signal using FIJI[86]. […] [85]. Area measurements were distributed into bins of increasing area sizes and plotted as a percentage of the total number of Sytox-green positive (dead) cells.

hPADI4 = target: T1, hPADI4 (Homo sapiens, UniProt Q9UM07); assay: COLDER assay, inhibition of PADI4 at 10 mM CaCl2 (substrate BAEE); type: biochemical; conditions: COLDER, 10 mM CaCl2, peptide 10–0.0003 µM
T1 construct: PADI4 (residues 1–663); Avi-Tag (unbiotinylated); made in house; host or cells: E. coli BL21(DE3) without BirA
T1 sequence (Q9UM07 whole entry, the tested form may be a part): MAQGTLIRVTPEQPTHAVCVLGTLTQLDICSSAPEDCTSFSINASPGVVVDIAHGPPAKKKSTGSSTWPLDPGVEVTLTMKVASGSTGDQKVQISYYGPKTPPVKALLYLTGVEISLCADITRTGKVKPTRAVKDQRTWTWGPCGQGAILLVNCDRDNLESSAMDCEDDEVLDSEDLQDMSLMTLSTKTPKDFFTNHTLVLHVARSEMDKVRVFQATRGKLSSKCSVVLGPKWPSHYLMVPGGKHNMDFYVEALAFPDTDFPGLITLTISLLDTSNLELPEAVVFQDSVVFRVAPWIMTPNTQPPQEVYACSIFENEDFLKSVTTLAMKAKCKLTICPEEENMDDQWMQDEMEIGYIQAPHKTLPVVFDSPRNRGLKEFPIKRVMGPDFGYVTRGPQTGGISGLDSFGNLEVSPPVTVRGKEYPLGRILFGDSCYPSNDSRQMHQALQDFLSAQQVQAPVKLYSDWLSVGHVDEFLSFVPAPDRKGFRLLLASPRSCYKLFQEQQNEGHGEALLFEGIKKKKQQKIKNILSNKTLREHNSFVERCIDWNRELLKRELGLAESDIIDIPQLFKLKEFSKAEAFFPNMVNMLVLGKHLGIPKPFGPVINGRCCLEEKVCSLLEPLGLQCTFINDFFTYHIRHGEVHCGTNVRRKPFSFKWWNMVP
Protocol: PADI4 activity was assessed using the COLDER assay[43] that measures the formation of urea-containing compounds (e.g. citrulline). The reaction was carried out in a 96-well plate with a final volume of 50 µl. His-PADI4 (50 nM) was incubated with different concentrations of peptides (100 µM to 0.3 nM) in the presence of CaCl2 (from 10 mM to 0.001 mM as specified) for 10 min. The reaction was started by the addition of 10 mM N^α-Benzoyl-L-arginine ethyl ester hydrochloride (BAEE, Merck). After 30 min, the reaction was quenched with EDTA (50 mM final concentration). For colour development, 200 µl of COLDER solution, consisting of 1 volume of solution A (80 mM diacetyl monoxime/2,3-butanedione monoxime (Merck) and 2 mM thiosemicarbazide (Acros Organics)) and 3 volumes of solution B (3 M H3PO4, 6 M H2SO4 and 2 mM NH4Fe(SO4)2) were added to each well and the mixture was heated at 95 °C for 15 min. After cooling to RT, absorbance at 540 nm was measured, and citrulline concentration was determined using a standard curve of citrulline standards. All studies were performed within the linear range of PADI4 activity, and data analysis was performed using Prism GraphPad (Dotmatics). Data are presented as the average ± standard error of the mean from at least two independent replicates.

**Q.** How did the CP50 (HaLo-GFP-mito HeLa cells) turn out when `N=C(N)NCCC[C@@H]1NC(=O)[C@H](CC(=O)O)NC(=O)[C@@H](Cc2ccc(O)cc2)NC(=O)CSC[C@@H](C(=O)NCC(N)=O)NC(=O)[C@H](Cc2ccc(O)cc2)NC(=O)[C@H](CCCCN)NC(=O)[C@@H]2CCCN2C(=O)[C@H](Cc2c[nH]cn2)NC(=O)[C@H](CCCNC(=N)N)NC(=O)[C@H](Cc2ccc(O)cc2)NC(=O)[C@H](Cc2c[nH]cn2)NC(=O)[C@H](Cc2c[nH]cn2)NC1=O` [PADI4_3i] ({CH2CO}-[dY]DRHHYRHPKYCG-NH2; thioether N-12) was run?
**A.** 2.0 ± 0.8 µM

**Q.** What about the “NETosis induced by calcium ionophore” value (human neutrophils) of the same compound?
**A.** neither response was affected

**Q.** What about the “PADI4 inhibition (in words)” value (hPADI4) of the same compound?
**A.** did not bind or inhibit PADI4
